Measured values from ChEMBL document CHEMBL1201862, “PubChem BioAssay data set” (2004).
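In this assay, cells in 96-well plates receive the compound at five concentrations for 48 hours. Endpoints are linearly interpolated between the surrounding concentrations. GI50: concentration for 50% inhibition of growth.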 Calls of active or inactive are those of the source. Cut-off read from the data, not from the text of the source: active = GI50 up to about 1.1 µM and inactive = higher.

Key:
Test in all cases: DTP human tumour cell line panel, 48 h
[1] = system: BT-549
[2] = system: EKVX
[3] = system: HCT-15
[4] = system: HOP-92
[5] = system: HT-29
[6] = system: K562
[7] = system: MDA-MB-435
[8] = system: MDA-N
[9] = system: NCI-H522
[10] = system: OVCAR-3
[11] = system: PC-3
[12] = system: SK-MEL-2
[13] = system: TK-10
[14] = system: UACC-257
[15] = system: UO-31
[16] = system: DU-145
[17] = system: HOP-62
[18] = system: SNB-75

Q: `NS(=O)(=O)c1cc(S(N)(=O)=O)c(NC(=O)Nc2ccc(Cl)c(Cl)c2)c(Cl)c1Cl` was tested. Which GI50 [1] did it give?
A: The GI50 was > 100 µM (inactive).

Q: And the GI50 [2]?
A: The GI50 was > 100 µM (inactive).

Q: And the GI50 [3]?
A: The GI50 was > 100 µM.

Q: What about the GI50 [4] of the same compound?
A: Its GI50 is 4.18 µM (inactive).

Q: And the GI50 [5]?
A: The GI50 was > 100 µM (inactive).

Q: What about the GI50 [6] of the same compound?
A: The GI50 was > 100 µM (inactive).

Q: And the GI50 [7]?
A: The GI50 was > 100 µM (inactive).

Q: And the GI50 [8]?
A: Its GI50 is > 100 µM (inactive).

Q: And the GI50 [9]?
A: The GI50 was > 100 µM (inactive).

Q: What about the GI50 [10] of the same compound?
A: Its GI50 is > 100 µM (inactive).

Q: And the GI50 [11]?
A: The GI50 was > 100 µM (inactive).

Q: What about the GI50 [12] of the same compound?
A: The GI50 was > 100 µM (inactive).

Q: What about the GI50 [13] of the same compound?
A: Its GI50 is > 100 µM (inactive).

Q: What about the GI50 [14] of the same compound?
A: The GI50 was > 100 µM (inactive).

Q: And the GI50 [15]?
A: Its GI50 is > 100 µM (inactive).

Q: Which GI50 [16] does the source give for `CCOP(=O)(C=C=C1CCC2[C@@H]3CCc4cc(OC)ccc4C3CC[C@]12C)OCC` (stereo partly drawn) here?
A: The GI50 was 14 µM (inactive).

Q: And the GI50 [2]?
A: The GI50 was 10 µM (inactive).

Q: And the GI50 [3]?
A: The GI50 was 10.9 µM.

Q: What about the GI50 [17] of the same compound?
A: The GI50 was 15.3 µM (inactive).

Q: And the GI50 [4]?
A: Its GI50 is 10.1 µM (inactive).

Q: And the GI50 [5]?
A: The GI50 was 3.93 µM (inactive).

Q: What about the GI50 [6] of the same compound?
A: The GI50 was 0.348 µM (active).

Q: What about the GI50 [7] of the same compound?
A: The GI50 was 12.4 µM (inactive).

Q: What about the GI50 [8] of the same compound?
A: The GI50 was 12.3 µM (inactive).

Q: And the GI50 [9]?
A: Its GI50 is 4.16 µM (inactive).

Q: What about the GI50 [10] of the same compound?
A: The GI50 was 10.2 µM (inactive).

Q: And the GI50 [11]?
A: Its GI50 is 3.92 µM (inactive).

Q: What about the GI50 [12] of the same compound?
A: Its GI50 is 12.9 µM (inactive).

Q: And the GI50 [18]?
A: The GI50 was 12.7 µM (inactive).

Q: What about the GI50 [13] of the same compound?
A: The GI50 was 12.7 µM (inactive).

Q: What about the GI50 [14] of the same compound?
A: Its GI50 is 6.21 µM (inactive).

Q: What about the GI50 [15] of the same compound?
A: The GI50 was < 0.01 µM (active).

Q: For `CC1CC(C)C2=NOS3=C2C1=NO3` (stereo not drawn), which GI50 [16] is on record?
A: The GI50 was > 100 µM (inactive).

Q: What about the GI50 [2] of the same compound?
A: The GI50 was 40 µM (inactive).

Q: And the GI50 [3]?
A: The GI50 was > 100 µM.

Q: And the GI50 [17]?
A: The GI50 was > 100 µM (inactive).

Q: What about the GI50 [4] of the same compound?
A: The GI50 was > 100 µM (inactive).

Q: And the GI50 [5]?
A: The GI50 was > 100 µM (inactive).

Q: And the GI50 [6]?
A: Its GI50 is 53.8 µM (inactive).

Q: What about the GI50 [7] of the same compound?
A: Its GI50 is > 100 µM (inactive).

Q: What about the GI50 [8] of the same compound?
A: The GI50 was > 100 µM (inactive).

Q: What about the GI50 [9] of the same compound?
A: Its GI50 is > 100 µM (inactive).

Q: And the GI50 [10]?
A: Its GI50 is > 100 µM (inactive).

Q: And the GI50 [11]?
A: Its GI50 is > 100 µM (inactive).

Q: And the GI50 [12]?
A: Its GI50 is > 100 µM (inactive).

Q: What about the GI50 [18] of the same compound?
A: The GI50 was 59.8 µM (inactive).

Q: What about the GI50 [13] of the same compound?
A: The GI50 was > 100 µM (inactive).

Q: And the GI50 [14]?
A: The GI50 was > 100 µM (inactive).

Q: What about the GI50 [15] of the same compound?
A: The GI50 was > 100 µM (inactive).

Q: With `CC(C)SC(C)(NC(=O)C1C(C)(C)CCC1(C)C)C(=O)O` (stereo not drawn) as the compound, how does the GI50 [16] read?
A: The GI50 was > 100 µM (inactive).

Q: What about the GI50 [2] of the same compound?
A: The GI50 was > 100 µM (inactive).

Q: And the GI50 [3]?
A: The GI50 was > 100 µM.

Q: And the GI50 [17]?
A: Its GI50 is > 100 µM (inactive).

Q: And the GI50 [4]?
A: The GI50 was > 100 µM (inactive).

Q: What about the GI50 [6] of the same compound?
A: Its GI50 is > 100 µM (inactive).

Q: What about the GI50 [7] of the same compound?
A: Its GI50 is > 100 µM (inactive).

Q: What about the GI50 [8] of the same compound?
A: Its GI50 is > 100 µM (inactive).

Q: What about the GI50 [11] of the same compound?
A: The GI50 was > 100 µM (inactive).

Q: What about the GI50 [12] of the same compound?
A: The GI50 was > 100 µM (inactive).

Q: And the GI50 [18]?
A: Its GI50 is > 100 µM (inactive).

Q: And the GI50 [13]?
A: Its GI50 is > 100 µM (inactive).

Q: What about the GI50 [15] of the same compound?
A: The GI50 was > 100 µM (inactive).

Q: What does the source list for `COc1ccc2c(c1)c(CC(=O)O)c(C)n2C(=O)c1ccc(Cl)cc1`?
A: GI50 [16]: > 100 µM (inactive); GI50 [2]: > 100 µM (inactive); GI50 [3]: > 100 µM; GI50 [17]: 54.5 µM (inactive); GI50 [4]: 4.42 µM (inactive); GI50 [5]: > 100 µM (inactive); GI50 [6]: 13.7 µM (inactive); GI50 [7]: > 100 µM (inactive); GI50 [8]: > 100 µM (inactive); GI50 [9]: 77.1 µM (inactive); GI50 [10]: 56.6 µM (inactive); GI50 [11]: 39 µM (inactive); GI50 [12]: 60.3 µM (inactive); GI50 [18]: 39.9 µM (inactive); GI50 [13]: 36.6 µM (inactive); GI50 [14]: > 100 µM (inactive); GI50 [15]: 41.8 µM (inactive)

Q: With `CC#CC(O)(C(=O)OC1CC(C)N(C)C(C)(C)C1)C1CCCC1` (stereo not drawn) as the compound, how does the GI50 [1] read?
A: Its GI50 is > 100 µM (inactive).

Q: What about the GI50 [16] of the same compound?
A: The GI50 was > 100 µM (inactive).

Q: What about the GI50 [2] of the same compound?
A: Its GI50 is > 100 µM (inactive).

Q: And the GI50 [3]?
A: Its GI50 is > 100 µM.

Q: And the GI50 [17]?
A: The GI50 was > 100 µM (inactive).

Q: And the GI50 [5]?
A: Its GI50 is > 100 µM (inactive).

Q: And the GI50 [6]?
A: The GI50 was > 100 µM (inactive).

Q: What about the GI50 [7] of the same compound?
A: The GI50 was > 100 µM (inactive).

Q: What about the GI50 [8] of the same compound?
A: Its GI50 is > 100 µM (inactive).

Q: What about the GI50 [9] of the same compound?
A: Its GI50 is > 100 µM (inactive).

Q: And the GI50 [10]?
A: Its GI50 is > 100 µM (inactive).

Q: And the GI50 [11]?
A: The GI50 was > 100 µM (inactive).

Q: What about the GI50 [18] of the same compound?
A: The GI50 was > 100 µM (inactive).

Q: What about the GI50 [13] of the same compound?
A: The GI50 was > 100 µM (inactive).

Q: What about the GI50 [14] of the same compound?
A: The GI50 was > 100 µM (inactive).

Q: What about the GI50 [15] of the same compound?
A: Its GI50 is > 100 µM (inactive).

Q: How did the GI50 [1] turn out when `Nc1ccc2nc(-c3cccc(Cl)c3)cc(O)c2c1` was run?
A: The GI50 was 5.45 µM (inactive).

Q: And the GI50 [2]?
A: Its GI50 is 42.6 µM (inactive).

Q: And the GI50 [3]?
A: The GI50 was 3.19 µM.

Q: What about the GI50 [17] of the same compound?
A: Its GI50 is 5.87 µM (inactive).

Q: What about the GI50 [4] of the same compound?
A: The GI50 was 2.84 µM (inactive).

Q: And the GI50 [5]?
A: The GI50 was 3.41 µM (inactive).

Q: What about the GI50 [7] of the same compound?
A: Its GI50 is 0.738 µM (active).

Q: And the GI50 [9]?
A: The GI50 was 2.34 µM (inactive).

Q: And the GI50 [11]?
A: The GI50 was 2.47 µM (inactive).

Q: And the GI50 [18]?
A: Its GI50 is 2.15 µM (inactive).

Q: What about the GI50 [13] of the same compound?
A: The GI50 was 2.65 µM (inactive).

Q: And the GI50 [14]?
A: Its GI50 is > 100 µM (inactive).

Q: What does the source list for `N#Cc1c(N)oc(-c2ccc([N+](=O)[O-])cc2)c1C#N`?
A: GI50 [16]: 23.6 µM (inactive); GI50 [2]: 8.67 µM (inactive); GI50 [3]: 23.4 µM; GI50 [17]: 24.5 µM (inactive); GI50 [4]: 24.1 µM (inactive); GI50 [5]: 34.4 µM (inactive); GI50 [7]: 47.4 µM (inactive); GI50 [8]: 30.3 µM (inactive); GI50 [9]: 21.4 µM (inactive); GI50 [11]: 22.5 µM (inactive); GI50 [12]: 24.3 µM (inactive); GI50 [18]: 17.7 µM (inactive); GI50 [13]: 28.4 µM (inactive); GI50 [14]: 25.2 µM (inactive); GI50 [15]: 19.1 µM (inactive)

Q: For `Cc1cc(N)c(C)c2c1[nH]c1ccc(O)cc12`, which GI50 [2] is on record?
A: Its GI50 is > 100 µM (inactive).

Q: And the GI50 [3]?
A: Its GI50 is > 100 µM.

Q: What about the GI50 [17] of the same compound?
A: Its GI50 is > 100 µM (inactive).

Q: And the GI50 [5]?
A: The GI50 was > 100 µM (inactive).

Q: And the GI50 [6]?
A: Its GI50 is 35 µM (inactive).

Q: What about the GI50 [9] of the same compound?
A: The GI50 was 17 µM (inactive).

Q: What about the GI50 [10] of the same compound?
A: Its GI50 is 50.6 µM (inactive).

Q: And the GI50 [12]?
A: Its GI50 is > 100 µM (inactive).

Q: And the GI50 [13]?
A: The GI50 was 66.8 µM (inactive).

Q: What about the GI50 [14] of the same compound?
A: The GI50 was > 100 µM (inactive).

Q: And the GI50 [15]?
A: The GI50 was > 100 µM (inactive).
